Laboratory results taken from patent US7459581B2, “Anti-bacterial compounds” (Givaudan S.A., priority 2004, dated 2008).
Converted amounts (≈) assume the structure as drawn. Like-named read-outs stand apart in the source and are kept apart here.

Columns and labels:
Corynebacterium Ax 7 [1] = assay: Bacteriostatic activity (MIC), microtiter turbidity; assay type: cell-based, Corynebacterium group G; conditions: read-out: MIC Corynebacterium Ax 7
Source text: (§1) The different axilla bacteria are isolated from the human axilla according to techniques known in the art, in particular according to standard microbiological practice. They are taxonomically identified by cell morphology, gram-reaction and biochemical tests included in the Api coryne test kit (BioMerieux, France). Strain Staphylococcus epidermidis Ax25 is identified by fatty acid methyl ester analysis (FAME; German type strain collection DSMZ, Germany).
(§2) The strains are maintained on Tryptic soy broth plates, this standard medium being supplemented with 5 g per litre of Polyoxyethylene Sorbitan Monooleate (Tween™ 80). Plates are incubated at 36° C. for a period 48 hours. The bacteria are then swabbed from the plates and suspended in 4 ml of Müller-Hinton broth supplemented with 100 mg of Tween™ 80 per litre (MH-Tween™) and incubated again at 36° C. for 16 hours. Following incubation, the bacterial suspensions are diluted in MH-Tween™ to obtain a final cell density of 10^7 colony forming units per ml. These diluted suspensions of the different test organisms are distributed to different columns of a microtiter plate, 100 μl per well. The test compounds are dissolved in dimethylsulfoxide (DMSO) at various test concentrations and 2.5 μl of these different DMSO solutions are added to the different wells of the test plates. The plates are covered with plastic films and incubated for 24 h at 36° C. with shaking at 250 rpm. The turbidity developing in the microtiter plates is then examined after 24 h to determine microbial growth.

Corynebacterium Ax 15 [2] = assay: as above; assay type: cell-based, Corynebacterium jeikeium; conditions: read-out: MIC Corynebacterium Ax 15
Source text: as §1, §2

S. epidermidis Ax 25 [3] = assay: Bactericidal activity (MBC), 60 min contact; assay type: cell-based, Staphylococcus epidermidis; conditions: complete kill of inoculum after 60 min incubation; regrowth read after 24 h at 36° C.
Source text: as §1, with “Germany). Escherichia coli DSM 682, Staphylococcus aureus DSM 799, and Corynebacterium xerosis DSM 20170 are obtained from the German-type strain collection.” for “Germany).”
as §2, with “growth. The minimal concentration of test compounds inhibiting the growth of an organism by at least 80% is determined as the minimal inhibitory concentration (MIC).” for “growth.”
(§3) The bactericidal effects of the compounds of the present invention are further tested. The bacteria are grown, harvested and diluted under the same conditions as described in example 10 above and added to microtiter plates (100 μl per well), each well containing 2.5 μl of the different DMSO solutions as described above. After 60 min incubation, 0.5 μl of the bacterial culture from each well (corresponding to 5×10^3 cfu in the control treatment) is transferred to a fresh microtiter plate which contained 100 μl per well of fresh medium. The plates are covered with plastic films and incubated for 24 h at 36° C. with shaking at 250 rpm. The turbidity developing in the microtiter plates is then examined after 24 h to determine microbial growth. The minimal concentration of test compounds which completely killed the bacterial inoculum is determined as the minimal bactericidal concentration (MBC).

C. xerosis DSM 20170 [4] = assay: Bactericidal activity (MBC), 60 min contact; assay type: cell-based, Corynebacterium xerosis; conditions: complete kill of inoculum after 60 min incubation; regrowth read after 24 h at 36° C.
Source text: as §1, with “Germany). Escherichia coli DSM 682, Staphylococcus aureus DSM 799, and Corynebacterium xerosis DSM 20170 are obtained from the German-type strain collection.” for “Germany).”
as §2, with “growth. The minimal concentration of test compounds inhibiting the growth of an organism by at least 80% is determined as the minimal inhibitory concentration (MIC).” for “growth.”
as §3

Candida albicans = assay: Antifungal (fungistatic) activity, MIC; assay type: cell-based; conditions: growth inhibition by at least 80%, 48 h, Saboureaud liquid medium, 10^5 cfu per ml
Procedure: as §2, with “growth. The minimal concentration of test compounds inhibiting the growth of an organism by at least 80% is determined as the minimal inhibitory concentration (MIC).” for “growth.”
(§4) The fungistatic effects of the compounds of the present invention are tested against the standard strains Candida albicans and Aspergillus niger. The strains are maintained on Potato dextrose agar plates. Plates are incubated at 30° C. for a period of 72 hours. The fungal inoculum is then swabbed from the plates and suspended in Saboureaud liquid medium and incubated again at 30° C. for 24 hours in the case of C. albicans. For A. niger the inoculum containing the fungal spores is directly harvested from the agar plates and suspended in distilled water. The inoculum is then diluted in Saboureaud liquid medium to obtain a final cell density of 10^5 colony forming units per ml. The test for fungistatic activity using differently concentrated DMSO stock solutions in microtiter plates is then conducted as described in example 10 for the bacteriostatic activity. The turbidity developing in the microtiter plates is then examined after 48 h to determine fungal growth. The minimal concentration of test compounds inhibiting the growth of an organism by at least 80% is determined as the minimal inhibitory concentration (MIC).

Aspergillus niger = assay: Antifungal (fungistatic) activity, MIC; assay type: cell-based; conditions: growth inhibition by at least 80%, 48 h, Saboureaud liquid medium, 10^5 cfu per ml
Procedure: as §2, with “growth. The minimal concentration of test compounds inhibiting the growth of an organism by at least 80% is determined as the minimal inhibitory concentration (MIC).” for “growth.”
as §4

Corynebacterium Ax 15 [5] = assay: Bactericidal activity (MBC), 60 min contact; assay type: cell-based, Corynebacterium jeikeium; conditions: complete kill of inoculum after 60 min incubation; regrowth read after 24 h at 36° C.
Source text: as §1, with “Germany). Escherichia coli DSM 682, Staphylococcus aureus DSM 799, and Corynebacterium xerosis DSM 20170 are obtained from the German-type strain collection.” for “Germany).”
as §2, with “growth. The minimal concentration of test compounds inhibiting the growth of an organism by at least 80% is determined as the minimal inhibitory concentration (MIC).” for “growth.”
as §3

Corynebacterium Ax 7 [6] = assay: Bactericidal activity (MBC), 60 min contact; assay type: cell-based, Corynebacterium group G; conditions: complete kill of inoculum after 60 min incubation; regrowth read after 24 h at 36° C.
Source text: as §1, with “Germany). Escherichia coli DSM 682, Staphylococcus aureus DSM 799, and Corynebacterium xerosis DSM 20170 are obtained from the German-type strain collection.” for “Germany).”
as §2, with “growth. The minimal concentration of test compounds inhibiting the growth of an organism by at least 80% is determined as the minimal inhibitory concentration (MIC).” for “growth.”
as §3

[7] = test system: Staphylococcus aureus DSM 799; assay: Bacteriostatic activity (MIC), microtiter turbidity; assay type: cell-based; conditions: read-out: MIC Staphylococcus aureus DSM 799
Source text: as §1, §2

Escherichia coli DSM 682 [8] = assay: as above; assay type: cell-based; conditions: read-out: MIC Escherichia coli DSM 682
Source text: as §1, §2

C. xerosis DSM 20170 [9] = assay: as above; assay type: cell-based; conditions: Corynebacterium xerosis, read-out: MIC C. xerosis DSM 20170
Source text: as §1, §2

S. epidermidis Ax 25 [10] = assay: as above; assay type: cell-based; conditions: Staphylococcus epidermidis, read-out: MIC S. epidermidis Ax 25
Source text: as §1, §2

[11] = test system: Staphylococcus aureus DSM 799; assay: Bactericidal activity (MBC), 60 min contact; assay type: cell-based; conditions: complete kill of inoculum after 60 min incubation; regrowth read after 24 h at 36° C.
Source text: as §1, with “Germany). Escherichia coli DSM 682, Staphylococcus aureus DSM 799, and Corynebacterium xerosis DSM 20170 are obtained from the German-type strain collection.” for “Germany).”
as §2, with “growth. The minimal concentration of test compounds inhibiting the growth of an organism by at least 80% is determined as the minimal inhibitory concentration (MIC).” for “growth.”
as §3

Escherichia coli DSM 682 [12] = assay: Bactericidal activity (MBC), 60 min contact; assay type: cell-based; conditions: complete kill of inoculum after 60 min incubation; regrowth read after 24 h at 36° C.
Source text: as §1, with “Germany). Escherichia coli DSM 682, Staphylococcus aureus DSM 799, and Corynebacterium xerosis DSM 20170 are obtained from the German-type strain collection.” for “Germany).”
as §2, with “growth. The minimal concentration of test compounds inhibiting the growth of an organism by at least 80% is determined as the minimal inhibitory concentration (MIC).” for “growth.”
as §3

[13] = AX7, growth inhibition by at least 80%, 24 h at 36° C., MH-Tween, 10^7 cfu per ml
[14] = AX15, growth inhibition by at least 80%, 24 h at 36° C., MH-Tween, 10^7 cfu per ml
[15] = DSM799, growth inhibition by at least 80%, 24 h at 36° C., MH-Tween, 10^7 cfu per ml
[16] = DSM682, growth inhibition by at least 80%, 24 h at 36° C., MH-Tween, 10^7 cfu per ml
[17] = DSM20170, growth inhibition by at least 80%, 24 h at 36° C., MH-Tween, 10^7 cfu per ml
[18] = AX25, growth inhibition by at least 80%, 24 h at 36° C., MH-Tween, 10^7 cfu per ml

Row | MIC (Corynebacterium Ax 7 [1]; [13]) | MIC (Corynebacterium Ax 15 [2]; [14]) | MIC [7, 15] | MIC (Escherichia coli DSM 682 [8]; [16]) | MIC (C. xerosis DSM 20170 [9]; [17]) | MIC (S. epidermidis Ax 25 [10]; [18]) | SMILES | MBC S. epidermidis Ax 25 (S. epidermidis Ax 25 [3]) | MBC C. xerosis DSM 20170 (C. xerosis DSM 20170 [4]) | MIC C. albicans (Candida albicans) | MIC A. niger (Aspergillus niger) | MBC Corynebacterium Ax 15 (Corynebacterium Ax 15 [5]) | MBC Corynebacterium Ax 7 (Corynebacterium Ax 7 [6]) | MBC Staphylococcus aureus DSM 799 [11] | MBC Escherichia coli DSM 682 (Escherichia coli DSM 682 [12]) | MIC (Corynebacterium Ax 7 [1]; AX7, 24 h) | MIC (Corynebacterium Ax 15 [2]; AX15, 24 h) | MIC ([7]; DSM799, 24 h) | MIC (Escherichia coli DSM 682 [8]; DSM682, 24 h) | MIC (C. xerosis DSM 20170 [9]; DSM20170, 24 h) | MIC (S. epidermidis Ax 25 [10]; AX25, 24 h)
1 | 1250 µg/mL (≈ 6640 µM) | 1250 µg/mL (≈ 6640 µM) | 2500 µg/mL (≈ 13300 µM) | 1250 µg/mL (≈ 6640 µM) | 1250 µg/mL (≈ 6640 µM) | 1250 µg/mL (≈ 6640 µM) | CCCCC(CC)COC(=O)CO (centres unmarked) [Compound 1., Hydroxy-acetic acid 2-ethyl-hexyl ester] | 0.25 % (weight/volume) | 0.125 % (weight/volume) | 0.0625 % (weight/volume) | 0.125 % (weight/volume) | 0.125 % (weight/volume) | 0.125 % (weight/volume) | – | – | – | – | – | – | – | –
2 | 80 µg/mL (≈ 327 µM) | 40 µg/mL (≈ 164 µM) | 310 µg/mL (≈ 1270 µM) | > 2500 µg/mL | 80 µg/mL (≈ 327 µM) | 80 µg/mL (≈ 327 µM) | CCCCCCC(CCCC)COC(=O)CO (centres unmarked) [Compound 2., Hydroxy-acetic acid 2-butyl-octyl ester] | >0.25 % (weight/volume) | >0.25 % (weight/volume) | – | – | >0.25 % (weight/volume) | >0.25 % (weight/volume) | – | – | – | – | – | – | – | –
3 | 2500 µg/mL (≈ 8320 µM) | 39 µg/mL (≈ 130 µM) | > 2500 µg/mL | > 2500 µg/mL | > 2500 µg/mL | ≤ 19 µg/mL | CCCCCCCCC(CCCCCC)COC(=O)CO (centres unmarked) [Compound 3., Hydroxy-acetic 2-hexyl-decyl ester] | >0.25 % (weight/volume) | >0.25 % (weight/volume) | – | – | >0.25 % (weight/volume) | >0.25 % (weight/volume) | >0.25 % (weight/volume) | >0.25 % (weight/volume) | – | – | – | – | – | –
4 | – | – | – | – | – | – | CCCCC(CC)COC(=O)CN (centres unmarked) [Compound 4., 2-Ethyl-hexyloxycarbonylmethyl-ammonium chloride] | 0.25 % (weight/volume) | >0.25 % (weight/volume) | – | – | 0.25 % (weight/volume) | 0.25 % (weight/volume) | 0.25 % (weight/volume) | 0.125 % (weight/volume) | 310 µg/mL | 310 µg/mL | 630 µg/mL | 630 µg/mL | 310 µg/mL | 630 µg/mL
5 | – | – | – | – | – | – | CCCCCCC(CCCC)COC(=O)CN (centres unmarked) [Compound 5., 2-Butyl-octyloxycarbonylmethyl-ammonium chloride] | 0.004 % (weight/volume) | 0.004 % (weight/volume) | 0.0078 % (weight/volume) | 0.0039 % (weight/volume) | 0.002 % (weight/volume) | 0.002 % (weight/volume) | 0.004 % (weight/volume) | 0.004 % (weight/volume) | 10 µg/mL | 10 µg/mL | 80 µg/mL | 20 µg/mL | 20 µg/mL | 20 µg/mL
6 | – | – | – | – | – | – | CCCCCCCCC(CCCCCC)COC(=O)CN (centres unmarked) [Compound 6., 2-Hexyl-decyloxycarbonylmethyl-ammonium chloride] | 0.002 % (weight/volume) | 0.002 % (weight/volume) | 0.0156 % (weight/volume) | 0.002 % (weight/volume) | 0.0005 % (weight/volume) | 0.0005 % (weight/volume) | 0.004 % (weight/volume) | 0.016 % (weight/volume) | 5 µg/mL | 5 µg/mL | 20 µg/mL | 20 µg/mL | 10 µg/mL | 5 µg/mL
7 | – | – | – | – | – | – | CCCCCCCCCCCC(=O)OCC(O)CO (centres unmarked) [Compound C1, Dodecanoic acid 2,3-dihydroxy-propyl ester, reference compound] | – | – | – | – | – | – | – | – | 160 µg/mL (≈ 583 µM) | 1250 µg/mL (≈ 4560 µM) | 80 µg/mL (≈ 292 µM) | > 5000 µg/mL | 320 µg/mL (≈ 1170 µM) | < 80 µg/mL
8 | – | – | – | – | – | – | Oc1cc(Cl)ccc1Oc1ccc(Cl)cc1Cl [Compound C4, Triclosan, reference compound] | – | – | – | – | – | – | – | – | 30 µg/mL (≈ 104 µM) | 30 µg/mL (≈ 104 µM) | 5 µg/mL (≈ 17.3 µM) | 5 µg/mL (≈ 17.3 µM) | 15 µg/mL (≈ 51.8 µM) | 0.15 µg/mL (≈ 0.518 µM)
